Target: T1, Pd2,6ST S232L/T356S/W361F (Photobacterium damselae, UniProt O66375, S232L/T356S/W361F)
T1 construct: (Δ15Pd2, 6ST); His6 tag with thrombin site ([…]) (N); made in house; host or cells: E. coli BL21(DE3)
Assay: Linkage specificity assays (relative sialidase activity towards sialosides, HPLC)
Type: biochemical
Conditions: for Relative sialidase activity: of Pd2,6ST S232L/T356S/W361F towards the sialoside, 1 mM substrate, 0.5 mM CMP, pH 6.0, 37° C., 30 minutes, relative to compound 2
Description: Reactions were performed in duplicate at 37° C. for 30 minutes in MES buffer (100 mM, pH 6.0), MgCl2 (10 mM), CMP (0.5 mM), and 1 mM substrate. Enzyme concentrations were 0.030 μM for 2, 0.30 μM for 7, 3.0 μM 6, and 30.0 μM for 3-5. These conditions provided testing at initial rates (1.2-24% yield) for each substrate. Reactions were stopped by adding an equal volume of pre-chilled methanol. The mixtures were incubated on ice for 30 minutes and centrifuged at 13,000 rpm for 5 minutes. Supernatants were analyzed with an Infinity 1290-II HPLC equipped with a UV-Vis detector (Agilent Technologies, CA). The HPLC procedure utilized a ZORBAX Eclipse Plus C18 Rapid Resolution HD 1.8 μm particle 2.1×50 mm column (Agilent Technologies, CA), an isocratic flow of 1 mL min′ for a 9% acetonitrile and 91% aqueous solution containing 0.1% TFA, and an injection volume of 2 μL. The para-nitrophenyl absorbance signal was monitored at 315 nm.

[1] = cleavage by Pd2,6ST S232L/T356S/W361F

Row | Structure (SMILES) | neosialidase activity toward the sialoside, in words [1] | Relative sialidase activity | cleavage rate as percent of the rate of Neu5Acα2-6GalβpNP (2) [1] | activity lower than toward Neu5Acα2-6GalβpNP (2) [1]
1 | CC(=O)NC1C(O)CC(OC(CO)C(O)C2OC(OC3C(O)C(CO)OC(Oc4ccc([N+](=O)[O-])cc4)C3O)(C(=O)O)CC(O)C2NC(C)=O)(C(=O)O)OC1C(O)C(O)CO (stereo not shown) [Compound 4, Neu5Acα2-8Neu5Acα2-3GalβpNP] | not detected | 3.3 × 10^−3 | – | –
2 | O=C(O)C1(OCC2OC(Oc3ccc([N+](=O)[O-])cc3)C(O)C(O)C2O)CC(O)C(O)C(C(O)C(O)CO)O1 (stereo not shown) [Compound 5, Kdnα2-6GalβpNP] | not a suitable substrate | 9.8 × 10^−4 | 0.1% | –
3 | CC(=O)N[C@H]1[C@H]([C@H](O)[C@H](O)CO)OC(O[C@H]2[C@@H](O)[C@@H](CO)O[C@@H](Oc3ccc([N+](=O)[O-])cc3)[C@@H]2O)(C(=O)O)C[C@@H]1O (stereo partly shown) [Compound 3, Neu5Acα2-3GalβpNP] | – | 2.5 × 10^−3 | – | ~400 fold
4 | O=C(CO)NC1C(O)CC(OCC2OC(Oc3ccc([N+](=O)[O-])cc3)C(O)C(O)C2O)(C(=O)O)OC1C(O)C(O)CO (stereo not shown) [Compound 6, Neu5Gcα2-6GalβpNP] | – | 1.2 × 10^−1 | approximately 12% | –
5 | CC(=O)NC1C(Oc2ccc([N+](=O)[O-])cc2)OC(COC2(C(=O)O)CC(O)C(NC(C)=O)C(C(O)C(O)CO)O2)C(O)C1O (stereo not shown) [Compound 7, Neu5Acα2-6GalNAcβpNP] | higher | 1.9 | – | –
6 | CC(=O)N[C@H]1[C@H]([C@H](O)[C@H](O)CO)OC(OC[C@H]2O[C@@H](Oc3ccc([N+](=O)[O-])cc3)[C@H](O)[C@@H](O)[C@H]2O)(C(=O)O)C[C@@H]1O (stereo partly shown) [Compound 2, Neu5Acα2-6GalβpNP] | suitable substrate | 1.0 | – | –

Reference: patent US11739305B2, “Sialyltransferase variants having neosialidase activity” (The Regents of the University of California, priority 2017, dated 2023)
